Molecules are shown by their SMILES. Like-named read-outs stand apart in the source and are kept apart here.

A short description of data set [1]: Pharmacokinetic study in mice. Type of data set: in vivo. As to conditions: male mice, plasma. As to the method:
Six male mice weighing 20-30 g were randomly divided into two groups. One group received an intravenous (IV) administration of the test compound at a dose of 2 mg/kg, while the other group received an oral (gavage) administration at a dose of 10 mg/kg. Blood samples were collected at 0.083, 0.25, 0.5, 1, 2, 4, 6, 8, and 24 hours post-administration. Plasma samples were processed and analyzed using LC/MS/MS in MRM)mode. A validated standard curve was established for the quantitative determination of the target compound in plasma, enabling the generation of plasma drug concentration-time profiles. Pharmacokinetic parameters were calculated using WinNonlin software with a non-compartmental model.

Data set [2] addresses T1, IRAK4 protein (Homo sapiens, UniProt Q9NWZ3).
T1 sequence (Q9NWZ3 1-460): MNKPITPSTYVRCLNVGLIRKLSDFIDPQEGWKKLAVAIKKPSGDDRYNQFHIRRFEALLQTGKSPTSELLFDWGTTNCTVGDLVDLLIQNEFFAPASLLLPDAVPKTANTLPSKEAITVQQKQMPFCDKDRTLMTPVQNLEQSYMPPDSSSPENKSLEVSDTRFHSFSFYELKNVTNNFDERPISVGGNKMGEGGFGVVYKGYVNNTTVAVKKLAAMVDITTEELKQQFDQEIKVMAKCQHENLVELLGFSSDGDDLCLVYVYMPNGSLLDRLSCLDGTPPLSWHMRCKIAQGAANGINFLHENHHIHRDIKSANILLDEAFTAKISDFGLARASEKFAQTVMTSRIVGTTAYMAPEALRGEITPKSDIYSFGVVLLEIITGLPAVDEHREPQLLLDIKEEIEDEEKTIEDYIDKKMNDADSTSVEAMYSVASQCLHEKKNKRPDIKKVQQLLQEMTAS
The experiment in a line: IRAK4 Degradation Assay in THP-1 Cells (Western Blot). The format is cell-based. More on the design: endogenous in cells; host or cells: THP-1 cells. The method, then:
In a 6-well cell culture plate, an appropriate number of THP-1 cells were seeded. The plate was placed in a 5% CO2 incubator at 37°C for overnight culture. Then, the test compound's dimethyl sulfoxide solution was added, with the final concentration ranging from 0.0128 to 1000 nM. After continuous culture for 24 hours, the culture medium was removed, and the cells were collected in a 1.5 mL centrifuge tube. After adding lysis buffer and grinding thoroughly, the mixture was placed on ice for 30 minutes. It was then centrifuged at 15,000 xg and 4°C for 20 minutes. The supernatant was taken, and the level of IRAK4 protein was detected by Western Blot.

Setting [3] is: THP-1 cells, 24 hours, 0.0128 to 1000 nM, IRAK4 protein level by Western Blot, read-out: DC50.
[4] abbreviates: mouse, iv, i.v. (2 mg/kg), read-out: AUC0-t.
Where [5] appears, read: mouse, po, p.o. (10 mg/kg), read-out: AUC0-t.
Where [6] appears, read: mouse, po, p.o. (10 mg/kg), read-out: Cmax.
Setting [7] is: THP-1, THP-1 cells, 24 hours, 0.0128 to 1000 nM, IRAK4 protein level by Western Blot, read-out: Dmax%.

What is called Cmax is the maximum level reached in the sampled fluid or tissue. For orientation: Tmax means the time at which the peak concentration occurs. As usually defined, the DC50 is the concentration giving 50% degradation. As a reminder, the Dmax is the largest share of the target that was removed. In data set [1] (i.v. (2 mg/kg)), `Cn1c(=O)n(C2CCC(=O)NC2=O)c2cccc(C#CCO[C@H]3CC[C@H](CN4CCC5(CC4)Cc4cc(NC(=O)c6cnn7cccnc67)c(N6CCC(O)CC6)cc4O5)CC3)c21` (stereo partly shown) [Compound 46] came in with an AUC(0-t) of 14148 ng·h/mL and a T1/2 of 2.76 h. Moreover, in data set [1] (p.o. (10 mg/kg)), the AUC(0-t) was determined as 42143 ng·h/mL, the Cmax amounted to 3493 ng/mL and the T1/2 is 3.82 h. Further, the Tmax in data set [1] (mouse, po, p.o. (10 mg/kg)) came to 4 h. In data set [2] (setting [3]), the DC50 came out at 1.37 nM. Further, in data set [2] (THP-1 cells, 24 hours, 0.0128 to 1000 nM, IRAK4 protein level by Western Blot, read-out: Dmax%), the Dmax turned out to be 87%.

Broadly, the half-life is the time in which the quantity being followed falls by half. Low values mean fast loss, high ones slow loss. For the compound `Cn1c(=O)n(C2CCC(=O)NC2=O)c2cccc(N3CCN(C(=O)CN4CCC5(CC4)Cc4cc(NC(=O)c6cnn7cccnc67)c(N6CCC(CO)CC6)cc4O5)CC3)c21` (stereo not shown) [Compound 70], the half-life was 3.1 h in data set [1] (mouse, iv, i.v. (2 mg/kg)) and 2.28 h in data set [1] (mouse, po, p.o. (10 mg/kg)). The AUC(0-t) in data set [1] (setting [4]) came out at 7880 ng·h/mL; in data set [1] (setting [5]), 6680 ng·h/mL. The Tmax in data set [1] (mouse, po, p.o. (10 mg/kg)) was determined as 2 h. In data set [1] (setting [6]), the Cmax came out at 870 ng/mL. The same compound registered a DC50 in data set [2] of 1.1 nM. Further, in data set [2] (THP-1), the Dmax came to 91.2%.

Regarding `Cn1nc(N2CCC(=O)NC2=O)c2cc(F)c(N3CCC(O)(CC(=O)N4CCC5(CC4)Cc4cc(NC(=O)c6cnn7cccnc67)c(N6CCC(CO)CC6)cc4O5)CC3)cc21` [Example 77], the half-life in data set [1] (mouse, iv, i.v. (2 mg/kg)) was 4.68 h; in data set [1] (mouse, po, p.o. (10 mg/kg)) it was 3.85 h. In addition, the AUC(0-t) was 12900 ng·h/mL in data set [1] (setting [4]) and 38200 ng·h/mL in data set [1] (setting [5]). Further, in data set [1] (mouse, po, p.o. (10 mg/kg)), the Tmax worked out at 1 h. Also, in data set [1] (setting [6]), the Cmax is 4830 ng/mL. Moreover, in data set [2] (setting [7]), the Dmax came out at 85.7%. The DC50 in data set [2] (setting [3]) turned out to be 1.28 nM.

For the compound `Cn1c(=O)n(C2CCC(=O)NC2=O)c2cccc(N3CCC(CN4CCC5(CC4)Cc4cc(NC(=O)c6cnn7cccnc67)c(N6CCC(CO)CC6)cc4O5)CC3)c21` (stereo not shown) [Example 78], the half-life in data set [1] (mouse, iv, i.v. (2 mg/kg)) is 33 h; in data set [1] (mouse, po, p.o. (10 mg/kg)) it was 6.58 h. The AUC(0-t) stood at 32700 ng·h/mL in data set [1] (setting [4]) and 44900 ng·h/mL in data set [1] (setting [5]). Besides, the Tmax in data set [1] (mouse, po, p.o. (10 mg/kg)) worked out at 1 h. The Cmax in data set [1] (setting [6]) was 2600 ng/mL. For the same compound, the maximal degradation (Dmax) in data set [2] (setting [7]) is 94%. Moreover, the DC50 in data set [2] (setting [3]) came to 0.86 nM.

For the compound `Cn1c(=O)n(C2CCC(=O)NC2=O)c2cccc(N3CCN(CCN4CCC5(CC4)Cc4cc(NC(=O)c6cnn7cccnc67)c(N6CCC(CO)CC6)cc4O5)CC3)c21` (stereo not shown) [Example 95], the half-life is 2.16 h in data set [1] (mouse, iv, i.v. (2 mg/kg)) and 2.78 h in data set [1] (mouse, po, p.o. (10 mg/kg)). Also, the AUC(0-t) in data set [1] (setting [4]) was found to be 4570 ng·h/mL; in data set [1] (setting [5]) it was 11100 ng·h/mL. Also, the Tmax in data set [1] (mouse, po, p.o. (10 mg/kg)) was 2 h. Moreover, in data set [1] (setting [6]), the Cmax amounted to 1210 ng/mL. This compound gave a DC50 in data set [2] of 0.89 nM. Also, the Dmax in data set [2] (THP-1) is 95%.
